The source of these data is ChEMBL document CHEMBL1158982, “Chemical studies on Mexican plants used in traditional medicine, XXI. Ratibinolide II, a new sesquiterpene lactone from Ratibida latipalearis” (J Nat Prod, 1991).

The nature of the data set: Toxicity against brine shrimp. Format: organism-based. As to conditions: artemia, in vivo.

Values after ≈ are worked out from the molar mass of the structure shown.

`C=C1C(=O)O[C@H]2[C@H]1CC[C@@]1(C)[C@@H](O)C=C[C@@]3(C)O[C@]231` [RATIBINOLIDE II] displayed a 50% lethal concentration (LC50) of 69.5 µg/mL (≈ 265 µM).

What is called LC50 is the concentration lethal to half of the exposed cells or organisms. A high value points to a less lethal substance.
